Results on one compound are retold here after patent US20150183748A1, “METHODS OF TREATMENT AND PREVENTION OF NEURODEGENERATIVE DISEASES AND DISORDERS” (Thomas Jefferson University, priority 2007, published 2015).

Entries after “also recorded” stand apart in the source; their conditions may differ.

The test system of the experiment is DM/HC pig model. Nature of the experiment: Diabetic/hypercholesterolemic (DM/HC) pig model: brain histology/IHC, weight and behaviour. The experiment is classed as in vivo. The method, then: A diabetic/diabetic hypercholestrolemic pig model (DM/HC) was developed that mimics human-like atherosclerosis. Farm pigs weighing 25-30 kg and aged ˜4 months were made diabetic with a single intravenous injection of 125 mg/kg of streptozotocin (Sicor Pharmaceuticals, Irvine, Calif.). After stabilization for 1-2 weeks, the animals with elevated levels of plasma glucose (>150 mg/dl) were fed with atherogenic (high-fat) diet as shown in Table 1 (Animal Specialties, Quakertown, Pa.) to achieve a cholesterol level of approximately […] Maintenance of the cholesterol level was determined by method as shown in Table 2.
On days 1-2, animals were fed normal chow, followed by on days 3-14 animals were fed a diet of 0.5% cholesterol, 2% lard and on day 14, cholesterol levels were measured and the diet adjusted accordingly to increase to 2% cholesterol, 10% lard if cholesterol is <300 mg/dl. Following induction of DM/HC, cholesterol was measured until cholesterol levels are stable between 300 and 800 mg/dl, and following cholesterol stabilization, cholesterol was measured monthly. If cholesterol levels were unstable following initial stabilization phase, the diet of the animal was returned to the initial two-week measurement schedule. Monthly cholesterol levels were determined, including levels of total cholesterol, LDL, HDL, VLDL and triglycerides.
At one month after stabilization of cholesterol at 250-800 mg/d1, the animals were randomized into two experimental groups, DM/HC (hyperglycemia and hypercholesterolemia) group with no treatment and treatment group (10 mg/kg/day of SB-480848, also referred to as 1-(N-(2-(diethylamino)ethyl)-N-(4-(4-trifluoromethylphenyl)benzyl)-aminocarbonylmethyl)-2-(4-fluorobenzyl)thio-5,6-trimethylenepyrimidin-4-one). The animals were sacrificed at 6-month after the randomization. The animal protocol has been approved by the Institutional Animal Care and Use Committee of University of Pennsylvania.
Two diabetic/hypercholesterolemic groups were evaluated: 1. DM/HC group and 2. DM/HC animals receiving Lp-PLA2 inhibitors. The experiments included: the control group (DM/HC group—17 pigs) and the experimental group (DM/HC animals receiving LP-PLA2 inhibitors—20 pigs). In addition blood cholesterol levels were maintained between 300 and 800 mg/dl in experimental animals, this range having been determined to provide a better test model. Blood cholesterol levels were monitored in all animals on a bimonthly basis, as shown in Table 4 and adjustments were made to the fat content of the feed accordingly, as shown in Table 2. The cholesterol and lard percent were in the range of 0.5-2% and 10-25%, respectively, and all animals received feed that contained cholesterol and lard concentration within that range. Blood samples were obtained at baseline, 1 month, 3 months, and 6 months. Less than 1 ml/kg of blood were obtained each time. At the bimonthly blood cholesterol levels tests, levels of total cholesterol, LDL, HDL, VLDL and triglycerides, blood glucose, Lp-PLA2 and […] (PBMCs) were tested (see Table 4).
The animal number, selected to justify the minimum requirement for statistical validity were 2 groups of animals per experiment as follows: 1. Control group (n=17); Diabetic and hyperlipidemic; 2.
Domestic farm pigs, Yorkshire boars, ranging in weight between 25-35 kg were purchased from a local farm and placed in indoor housing under the care of a veterinarian. They were castrated 3-5 days in advance of the study start date. Test pigs were made diabetic by infusing one dose of streptozocin (125 mg/kg) IV in a period of 30 min. […] To avoid the possible onset of initial hypoglycemia, 20 g of glucose powder was added to the feed for the […]. The blood glucose was measured using a glucometer every day before feeding for the first 14 days and then once a week.
Test animals were housed separately from control animals to avoid inter-animal transfer of drug due to colcophagia. […]

The mark [1] stands for this setting: DM/HC pigs, 10 mg/kg/day, brain IHC for pig immunoglobulin.
Where [2] appears, read: DM/HC pigs, 10 mg/kg/day, observed during study period vs control non-treated animals.

With `CCN(CC)CCN(Cc1ccc(-c2ccc(C(F)(F)F)cc2)cc1)C(=O)Cn1c(SCc2ccc(F)cc2)nc(=O)c2c1CCC2` [Lp-PLA2 inhibitor, 1-(N-(2-(diethylamino)ethyl)-N-(4-(4-trifluoromethylphenyl)benzyl)-aminocarbonylmethyl)-2-(4-fluorobenzyl)thio-5,6-trimethylenepyrimidin-4-one], under “DM/HC pigs treated with Lp-PLA2 inhibitor, GFAP as marker”, the “activation of glial cells” value is listed as “less activation of glial cells”. For the same compound, the “Abeta42 accumulation in vascular SMCs (cerebrovascular amyloidosis)” value (DM/HC pigs, 10 mg/kg/day, Abeta-42 immunostaining of arterioles) is listed as “little or no arterial Abeta-42 immunostaining; also recorded: prevented Abeta42 accumulation in vascular SMCs”. In addition, where the note is “DM/HC pigs, 10 mg/kg/day, brain Abeta-42 immunostaining, n=6”, the “Abeta-42 accumulation in neurons (immunoreactivity)” value is “immunonegative neurons for Abeta-42; also recorded: no neuronal Abeta-42 immunoreactivity”. Moreover, the dendrite collapse entry (DM/HC pigs, 10 mg/kg/day, brain IHC) is reported as “no dendrite collapse”. Under setting [1], the “Ig binding to neurons” value is reported as “no Ig binding to neurons” and the “Ig leakage from blood vessels” value is listed as “Ig is confined to the lumen of the blood vessels; also recorded: no Ig leakage from blood vessels”. Besides, the “DM/HC-induced BBB leakage” value (DM/HC pigs, 10 mg/kg/day, brain IHC for pig immunoglobulin, n=6) was “prevents BBB leakage; also recorded: negligible BBB leakage”. The sick neurons result (DM/HC pigs, 10 mg/kg/day, compared with non-treated animals) is on record as “rarely observed”. Also, under setting [2], the “activity in the cage” value is listed as “increased activity in the cage”; the “response to feeding and handling” value was “respond more alertly to feeding and handling”; the “responsiveness to external stimuli” value was “more responsive to external stimuli”.
